What was measured:
[1] = tested on: osteoblasts and osteocytes in murine vertebral bone; experiment: osteoblast and osteocyte apoptosis in ovariectomized mice (TUNEL); type: in vivo, mouse; conditions: ovariectomized Swiss Webster mice
From the text: The degree of apoptosis of osteoblasts and osteocytes in murine vertebral bone as a function of estrogen deficiency was examined. Swiss Webster mice (four months old) were ovariectomized. Twenty-eight days later, the animals were sacrificed, vertebrae were isolated, fixed and embedded, and then undecalcified in methacrylate.

[2] = tested on: CD4^+CD25^+ T regulatory cells; experiment: CD4+CD25+ T regulatory cells after adoptive transfer of CD4+CD25- T cells; type: in vivo, mouse; conditions: 1 mg/animal/day s.c. for 14 days
Method: Inhibition of the generation of CD4^+CD25^+ T regulatory cells or their activity in vivo. Purified CD4^+CD25^− T cells (5×10^6 cells) from congenic B6.5JL mice (CD45.1) per group were adoptively transferred into each of five B6 mice (CD45.2). The purified CD4^+CD25^− T cells were obtained by fluorescence activated cell sorting (FACS) of the donor cells at least twice. Vehicle (0.1% carboxymethylcellulose, 0.9% saline, 2% tween 80, 0.05% phenol) or 16α-bromoepiandrosterone in vehicle (1 mg/animal/day in 100 μL vehicle) was injected subcutaneously before transfer of the cells from the CD45.1 donor animals and the injections were continued daily for 14 days. Thymus, lymph nodes and spleens were collected from the animals at day 15. Samples of thymus, lymph node and spleen were obtained from individuals, and the cells were labeled with fluorescent antibody that bound to CD4, CD25, CD103 or Foxp3. The cells were then analyzed by flow cytometry to enumerate the numbers of the various cell types. The remainder of cells from lymph nodes and spleen of each treatment group were pooled, pre-enriched for CD4^+CD25^+ cells and then analyzed for CD4^+CD25^+ that arose from the host (endogenous CD45.2 cells) and from donor cells (CD45.1 cells that converted from the CD4^+CD25^− donor phenotype to the CD4^+CD25^+ phenotype after residing in vivo for 15 days). The cells were analyzed by cell sorter. To test for regulatory function, varying numbers of purified converted CD45.1 or endogenous CD45.2 CD4^+CD25^+ cells were co-cultured with 2000 CD4^+CD25^− responder cells, 1×10^5 irradiated spleen cells as antigen presenting cells, and […] of anti-CD3 antibody. Fresh CD4^+CD25^+ cells were used as controls. Proliferation was determined by measurement of ^3H-thymidine uptake 4 days after initiation of culture.

[3] = tested on: γ-interferon production by human whole blood; experiment: γ-interferon production in human whole blood exposed to LPS; type: cell-based; conditions: LPS 24 hours; 16α-bromoepiandrosterone at 100 ng/mL
Method: Anti-inflammation activity in human cells in vitro. […] The amount of γ-interferon was measured in the growth medium when the cells had been incubated in the presence of LPS for 24 hours.

[4] = tested on: Pseudomonas aeruginosa; experiment: clearance of chronic lung infection in CFTR mice; type: in vivo; conditions: 40 mg/kg; day 10; p=<0.04 vs vehicle
Method: Clearance of bacteria from lung tissue. The capacity of 16α-bromoepiandrosterone to clear a Pseudomonas aeruginosa infection from lung tissue was shown using a previously published protocol, A. van Heeckeren et al., J. Clin. Invest., 100(11):2810-2815 […]; A. van Heeckeren et al., Am. J. Respir. Crit. Care Med., 161:271-279 2000. The protocol was conducted in CFTR mice, which are used as an animal model for human cystic fibrosis, S. D. Freedman et al., Proc. Natl. Acad. Sci. USA, 96(24):13995-14000 1999; W. Zeng et al., Am. J. Physiol. Cell. Physiol. […] Establishment of chronic P. aeruginosa infection using agarose beads containing bacteria (50 μL containing about 6.1×10^4 CFU/animal) was published earlier, J. R. Starke et al., Pediatr. Res., 22:698-702 1987. Two groups of mice (n=9 for each group) were treated with 40 mg/kg of 16α-bromoepiandrosterone or vehicle (control) and the bacterial burden in the lungs of the animals was determined at 10 days after introduction of the agarose beads into the lung.

[5] = tested on: NF-κB; experiment: NF-κB-bla THP-1 β-lactamase reporter assay; type: cell-based, human
[6] = tested on: mice, LPS induced lung injury; experiment: lung injury by sublethal LPS to trachea and lungs, BAL cell count; type: in vivo, mouse; conditions: oral gavage 24 h before and 1 h after 100 μg LPS; 48 hours
Method: In another assay, the capacity of 16α-bromoepiandrosterone and 3β,16α-dihydroxy-17-oxoandrostane to protect against lung injury induced by exposure to a sublethal amount of LPS in mice was shown. In this assay, the compounds, sterile saline (negative control) or vehicle (vehicle control) were administered to groups of 5 mice by oral gavage at 24 hours before and 1 hour after administration of 100 μg of LPS to the trachea and lungs of animals under light anesthesia. At 48 hours the animals were sacrificed and samples were obtained from the lungs of the animals by bronchiolar alveolar lavage (BAL). The numbers of cells in the BAL fluid were counted, with high numbers of cells showing lung inflammation and damage. In this assay, cells that mediate inflammation and lung damage infiltrate into the lungs in response to the presence of the LPS. In the negative control and vehicle control groups, the BAL fluid contained about 6×10^7 cells/mL. […] Other compounds, e.g., 17α-ethynylandrost-5-ene-3β,7β,17β-triol or 17β-aminoandrost-5-ene-3β-ol, can be characterized in a similar manner.

[7] = tested on: mice given a lethal amount of LPS; experiment: lethal shock protocol, lethal amount of bacterial LPS; type: in vivo, mouse; conditions: for survival 72 hours after LPS: first protocol
Method: Treatment of lethal inflammation/shock. Two compounds, 16α-bromoepiandrosterone (3β-hydroxy-16α-bromoandrostane-17-one) and 3β,16α-dihydroxy-17-oxoandrostane, were used in a lethal shock protocol. In one protocol, 3 mg of 16α-bromoepiandrosterone was administered to one group of animals by oral gavage, while another group received 3 mg of 16α-bromoepiandrosterone by subcutaneous injection. A group of control animals received a placebo control. In this protocol, the 16α-bromoepiandrosterone was administered to mice at 24 hours before and at 1 hour after administration of a lethal amount of bacterial lipopolysaccharide (LPS). By the end of the observation period, 72 hours after LPS administration, none of the vehicle treated placebo control animals had survived, while 65% of animals that received 16α-bromoepiandrosterone by oral administration survived. 50% of the animals that received 16α-bromoepiandrosterone by subcutaneous injection survived. Animals that survived for 72 hours all recovered from the LPS exposure.
In a second assay, 16α-bromoepiandrosterone or 3β,16α-dihydroxy-17-oxoandrostane was administered to mice by oral gavage at 24 hours before and 1 hour after administration of a lethal amount of LPS. A vehicle treated group of animals was used as the placebo control.

[8] = tested on: NF-κB in spleen cells of ICR mice; experiment: activated NF-κB in spleen cell nuclei after LPS, Example 8; type: in vivo, mouse; conditions: about 40 mg/kg i.p. 24 h before and 1 h after LPS; spleens 1.5 hours after LPS
Method: The capacity of selected compounds to treat LPS induced shock/inflammation in mice was examined by a protocol similar to the protocol described above. Five groups of three ICR mice weighing about 30 g were each treated by intraperitoneal injection with 120 μL vehicle (30% sulfobutylether-cyclodextrin in water), androst-5-ene-3α,7β,16α,17β-tetrol in vehicle, androst-5-ene-3β,4β,16α,17β-tetrol in vehicle or 4β-acetoxyandrost-5-ene-3β,16α,17β-triol in vehicle. All drug and vehicle formulations were solutions, not suspensions. The sulfobutylether-cyclodextrin was obtained commercially (Captisol™, www.cyclexinc.com). There were two vehicle control groups one group received vehicle alone and the other received vehicle plus LPS. […] Drug was administered at about 40 mg/kg (1.2 mg drug/animal for each administration of the drugs). Spleens were harvested from the animals at 1.5 hours after injection of LPS and spleen cells were lysed and assayed for activated NF-κB by isolating nuclei from spleen cells and measuring NF-κB from the lysed nuclei. […] The level of activated NF-κB in spleen cells from the animals that were treated with vehicle and no LPS, was essentially the same as the activated NF-κB in spleen cells from drug treated animals.

[9] = metabolic stability in liver microsomes: mouse; conditions: 10 min
Method: (§1) The protocol was performed as follows. […] (2) Set up samples as follows. […] (4) The internal standard/acetonitrile solution.

[10] = metabolic stability in liver microsomes: human; conditions: 10 min
Method: as §1

[11] = tested on: female SJL mice, EAE; experiment: experimental autoimmune encephalomyelitis (EAE), PLP-induced, Example 23; type: in vivo, mouse; conditions: 0.1 mg q.d. po from clinical onset
[12] = other protocols: degree of sulfation and glucuronidation
[13] = tested on: MG-63 cells; experiment: reversal of glucocorticoid effects in MG-63 osteosarcoma cells; type: cell-based, human; conditions: 10 nM compound
[14] = tested on: CF-1 mice, hemorrhagic shock; experiment: hemorrhagic shock and ischemia with abdominal surgery; type: in vivo, mouse; conditions: 2 mg in resuscitation fluid; vehicle control 1/15
Method: The effect of compounds on hemorrhagic shock and ischemia was examined in another protocol. CF-1 mice at an age of 6-8 months were anesthetized using methoxyfluorothane and prepared for abdominal surgery. Each mouse was tested for the level of respiration, eye blink response and response to a skin pinch to ensure a level of anesthesia appropriate for surgery. The duration of abdominal surgery was approximately two hours, during which time 35-40% of the animal's blood volume is removed over a […]. The removal of blood in a controlled manner simulates the effect of hemorrhagic shock. A slow intravenous infusion of the removed blood and a 2× volume of resuscitation fluid (lactated Ringers solution) into a central vein was made. The resuscitation fluid was supplemented with either 2 mg dehydroepiandrosterone-3β-sulfate or the excipient as a placebo. The peritoneum and overlying skin were sutured separately. Animals were maintained at 38°-39° C. until recovery is complete. Under these conditions, most of the placebo-treated animals died within 24-48 hours. […] Mesenteric lymph nodes (MLN) were removed and cultured on blood agar plates and the number of CFUs counted following culturing. The liver was removed and the amount malondialdehyde was measured.

C[C@]12CC[C@H]3[C@@H](CCC4=C[C@H](O)CC[C@@H]43)[C@@H]1CC[C@@H]2O [4-estrene-3α,17β-diol]
osteoblast and osteocyte apoptosis [1]: reduce apoptosis

C[C@]12CC[C@H](O)C[C@@H]1CC[C@@H]1[C@@H]2CC[C@]2(C)C(=O)[C@H](Br)C[C@@H]12 [16α-bromoepiandrosterone]
average donor CD45.1 CD4^+CD25^+ cell number in spleens ([2]; day 15, vehicle 1.97×10^5): 0.62×10^5 cells
average endogenous CD45.2 CD4^+CD25^+ cells in the thymus ([2]; day 15, vehicle 3.10×10^5): 1.59×10^5
average endogenous CD45.2 CD4^+CD25^+ cell number in spleens ([2]; day 15, vehicle 9.54×10^6): 5.49×10^6 cells
proportion of endogenous CD45.2 CD4^+CD25^+CD103^+ Treg cells in spleens ([2]; vehicle 13.85%): 13.40%
average of donor CD45.1 CD4^+CD25^+CD103^+ cells of total donor CD4^+CD25^+ cells in spleens ([2]; vehicle 29.06%): 9.63%
production of γ-interferon [3]: Reduced production
bacterial burden in the lungs [4]: reduced
maximum NF-κB inhibition ([5]; this protocol): 100%
cell counts in the BAL fluid [6]: about 4.4×10^7 cells/mL
survival 72 hours after LPS ([7]; 3 mg by oral gavage 24 h before and 1 h after LPS): 65%
survival 72 hours after LPS ([7]; 3 mg by subcutaneous injection 24 h before and 1 h after LPS): 50%
survival at 72 hours ([7]; second assay, oral gavage 24 h before and 1 h after LPS): 80%

C[C@]12CC[C@H]3[C@@H]([C@@H](O)C=C4C[C@H](O)CC[C@@]43C)[C@@H]1C[C@@H](O)[C@@H]2O [androst-5-ene-3α,7β,16α,17β-tetrol]
decrease of NF-κB activation compared to LPS+vehicle control group [8]: about 50%
parent remaining mouse microsomes [9]: 100% (10 min)
parent remaining human microsomes [10]: 100% (10 min)
course of EAE compared to vehicle-treated mice [11]: very similar to that observed in the vehicle-treated mice
degree of sulfation and degree of glucuronidation compared to diols [12]: low
osteoprotegerin levels in the presence of 30 nM dexamethasone [13]: normal osteoprotegerin levels

C[C@]12CC[C@H]3[C@@H](CCC4C[C@H](O)[C@@H](O)C[C@@]43C)[C@@H]1C[C@@H](O)[C@@H]2O (stereo partly drawn) [androstane-2β,3α,16α,17β-tetrol]
melting point: 260 to 263 °C
IC50 ([5]; Homo sapiens, THP-1, read-out: IC50, this protocol): > 10 µM

C[C@]12CC[C@H](OS(=O)(=O)O)CC1=CC[C@@H]1[C@@H]2CC[C@]2(C)C(=O)CC[C@@H]12 [dehydroepiandrosterone-3β-sulfate]
survival [14]: 15/15

— patent US20080153792A1, “Drug Identification and Treatment Method” (priority 2006, published 2008)
